Measured values as given in patent US5696112A, “Fused heterocyclic azepines as vasopressin antagonists” (American Cyanamid Company, priority 1995, dated 1997).

What was measured:
[1] = molecular target: T1, Rat Kidney Medullary V2 Receptors (vasopressin V2) (Rattus norvegicus, UniProt Q00788); experiment: Binding Assay to Rat Kidney Medullary V2 Receptors; conditions: rat kidney medullary V2, [3H]Arg8-vasopressin
T1 construct: Medullary tissues from rat kidneys are dissected out; from tissue; host or cells: rat kidney medulla membranes
T1 sequence (Q00788 whole entry): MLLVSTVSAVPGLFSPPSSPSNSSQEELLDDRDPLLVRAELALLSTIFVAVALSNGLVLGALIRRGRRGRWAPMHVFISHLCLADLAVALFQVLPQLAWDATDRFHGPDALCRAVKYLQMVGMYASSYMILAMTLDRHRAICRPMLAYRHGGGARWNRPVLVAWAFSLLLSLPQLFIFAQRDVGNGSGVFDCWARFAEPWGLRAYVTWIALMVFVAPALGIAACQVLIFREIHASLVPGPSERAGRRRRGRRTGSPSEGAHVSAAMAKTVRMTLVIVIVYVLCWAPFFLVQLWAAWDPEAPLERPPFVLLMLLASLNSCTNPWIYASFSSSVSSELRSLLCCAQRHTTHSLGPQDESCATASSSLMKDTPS
Protocol: Binding Assay to Rat Kidney Medullary V2 Receptors
Medullary tissues from rat kidneys are dissected out, cut into small pieces and let soak in a […] sodium chloride solution containing 1.0 mM EDTA with many changes of the liquid phase, until the solution is clear of blood. The tissue is homogenized in a 0.25M sucrose solution containing 1.0 mM EDTA and 0.1 mM PMSF using a Potter-Elvehjem homogenizer with a teflon pestle. The homogenate is filtered through several layers (4 layers) of cheese cloth. The filtrate is rehomogenized using a dounce homogenizer, with a tight fitting pestle. The final homogenate is contrifuged at 1500×g for 15 min. The nuclear pellet is discarded and the supernatant fluid recentrifuged at 40,000×g for 30 min. The resulting pellet formed contains a dark inner part with the exterior, slightly pink. The pink outer part is suspended in a small amount of 50.0 mMTris.HCl buffer, pH 7.4. The protein content is determined by the Lowry's method (Lowry et al, J. Biol. Chem., 1953). The membrane suspension is stored at -70° C., in 50.0 mMTris.HCl, containing 0.2% inactivated BSA and 0.1 mM PMSF in aliquots of 1.0 ml containing 10.0 mg protein per ml of suspension until use in subsequent binding experiments.
For binding experiments, the following is added in μl volume to wells of a 96 well format of a microtiter plate: 100.0 μl of 100.0 mM Tris.HCl buffer containing 0.2% heat inactivated BSA, 10.0 mM MgCl2 and a mixture of protease inhibitors: leupeptin, 1.0 mg %; aprotinin, 1.0 mg %; 1,10-phenanthroline, 2.0 mg %; trypsin inhibitor, 10.0 mg % and 0.1 mM PMSF, 20.0 μl of [^3 H]Arginine^8, vasopressin (S.A. 75.0 Ci/mmole) at 0.8 nM and the reaction initiated by the addition of 80.0 μl of tissue membranes (200.0 μg tissue protein). The plates are left undisturbed on the bench top for 120 min. to reach equilibrium. Non-specific binding is assessed in the presence of 1.0 μM of unlabeled ligand, added in 20 μl volume. For test compounds, these are solubilized in 50% dimethylsulfoxide (DMSO) and added in 20.0 μl volume to a final incubation volume of 200 μl. Upon completion of binding, the content of each well is filtered off, using a Brandel® cell Harvester (Gaithersburg, Md.). The radioactivity trapped on the filter disk by the ligand-receptor complex is assessed by liquid scintillation counting in a Packard LS Counter, with an efficiency of 65% for tritium. The data are analyzed for IC50 values by the LUNDON-2 program for competition (LUNDON SOFTWARE, OH).

[2] = molecular target: T2, Rat Hepatic V1 Receptors (vasopressin V1) (Rattus norvegicus, UniProt P30560); experiment: Binding Assay to Rat Hepatic V1 Receptors; conditions: rat hepatic V1, [3H]vasopressin
T2 construct: Rat liver plasma membranes expressing the vasopressin V1 receptor subtypes are isolated by sucrose density gradient; from tissue; host or cells: rat liver plasma membranes
T2 sequence (P30560 whole entry): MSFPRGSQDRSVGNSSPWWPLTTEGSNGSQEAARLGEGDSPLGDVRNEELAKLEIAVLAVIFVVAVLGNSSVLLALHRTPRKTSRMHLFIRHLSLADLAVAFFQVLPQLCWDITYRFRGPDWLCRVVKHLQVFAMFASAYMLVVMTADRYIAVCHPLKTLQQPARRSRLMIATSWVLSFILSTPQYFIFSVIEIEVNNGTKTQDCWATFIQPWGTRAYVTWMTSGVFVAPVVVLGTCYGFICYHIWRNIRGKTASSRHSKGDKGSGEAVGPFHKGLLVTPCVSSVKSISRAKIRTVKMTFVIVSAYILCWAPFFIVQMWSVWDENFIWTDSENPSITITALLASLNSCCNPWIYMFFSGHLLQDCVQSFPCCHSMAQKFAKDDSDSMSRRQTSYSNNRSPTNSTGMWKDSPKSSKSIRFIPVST
Protocol: Binding Assay to Rat Hepatic V1 Receptors
Rat liver plasma membranes expressing the vasopressin V1 receptor subtypes are isolated by sucrose density gradient according to the method described by Lesko et al., (1973). These membranes are quickly suspended in 50.0 mMTris.HCl buffer, pH 7.4, containing 0.2% bovine serum albumin (BSA) and 0.1 mM phenylmethylsulfonylfluoride (PMSF) and kept frozen at -70° C. until used in subsequent binding experiments. For binding experiments, the following is added to the wells of a ninety-six well format microtiter plate: 100 μl of 100.0 mM Tris.HCl buffer containing 10.0 mM MgCl2, 0.2% heat inactivated BSA and a mixture of protease inhibitors: leupeptin, 1.0 mg %; aprotinin, 1.0 mg %, 1,10-phenanthroline,2.0 mg %; trypsin inhibitor, 10.0 mg % and 0.1 mM PMSF, 20.0 μl of [phenylalanyl-3,4,5-^3 H]vasopressin (S.A. 45.1 Ci/mmole) at 0.8 nM, and the reaction initiated by the addition of 80 μl of tissue membranes containing 20 μg of tissue protein. The plates are kept undisturbed on the bench top at room temperature for 120 min. to reach equilibrium. Nonspecific samples are assayed in the presence of 0.1 μM of the unlabeled antagonist phenylalanylvasopressin, added in 20.0 μl volume to a final incubation volume of 200 μl. Upon completion of binding, the content of each well is filtered off, using a Brandel® cell Harvester (Gaithersburg, Md.). The radioactivity trapped on the filter disk by the ligand-receptor complex is assessed by liquid scintillation counting in a Packard LS Counter, with an efficiency of 65% for tritium. The data are analyzed for IC50 values by the LUNDON-2 program for competition (LUNDON SOFTWARE, OH).

Vasopressin V2 = Vasopressin V2 Antagonist Activity in Conscious Hydrated Rats; assay type: in vivo, rat; conditions: AVP 0.4 μg/kg i.p.
Protocol: Vasopressin V2 Antagonist Activity in conscious Hydrated Rats Conscious hydrated rats are treated with compounds under study from 0.1 to 100 mg/kg orally or vehicle. Two to four rats are used for each compound. One hour later, arginine vasopressin (AVP, antidiuretic hormone, ADH) dissolved in peanut oil is administered at 0.4 μg/kg intraperitoneally. Two rats in each test would not receive arginine vasopressin but only the vehicle (peanut oil) to serve as water-loading control. Twenty minutes later each rat is given 30 mL/kg of deionized water orally by gavage and is placed individually in a metabolic cage equipped with a funnel and a graduated glass cylinder to collect urine for four hours. Urine volume is measured and osmolality analyzed by use of a Fiske One-Ten osmometer (Fiske Assoc., Norwood, Mass. USA). Urinary sodium, potassium, and chloride are analyzed by use of ion-specific electrodes in a Beckman E3 (Electrolyte 3) Analyzer. In the following results, […] and […] osmolality relative to AVP-control indicates activity.

oxytocin receptors = molecular target: T3, oxytocin receptors (Rattus norvegicus, UniProt P70536); experiment: Oxytocin Receptor Binding; parameters: species or system Sprague-Dawley rats
T3 construct: The uteri are dissected out, cleaned of fat and connective tissues; from tissue; host or cells: uterus membranes of DES-treated female Sprague-Dawley rats
T3 sequence (P70536 1-388): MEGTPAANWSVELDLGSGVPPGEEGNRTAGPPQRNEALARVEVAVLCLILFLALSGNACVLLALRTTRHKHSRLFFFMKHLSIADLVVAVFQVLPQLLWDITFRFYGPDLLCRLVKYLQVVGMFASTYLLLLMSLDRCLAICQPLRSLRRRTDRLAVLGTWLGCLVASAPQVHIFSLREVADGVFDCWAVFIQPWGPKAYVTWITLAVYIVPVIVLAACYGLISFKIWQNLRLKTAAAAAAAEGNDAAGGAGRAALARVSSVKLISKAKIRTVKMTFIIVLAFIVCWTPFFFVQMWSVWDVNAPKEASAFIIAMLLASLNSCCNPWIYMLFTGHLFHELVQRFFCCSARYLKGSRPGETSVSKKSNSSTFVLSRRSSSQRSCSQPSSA
Protocol: Oxytocin Receptor Binding
Female Sprague-Dawley rats weighing approximately 200-250 g are injected intramuscularly (i.m.) with 0.3 mg/kg of body weight of diethylstilbestrol (DES). The rats are sacrificed 18 hours later under pentobarbital anesthesia. The uteri are dissected out, cleaned of fat and connective tissues and rinsed in 50 ml of normal saline. The tissue pooled from six rats is homogenized in 50 ml of 0.01 mMTris.HCl, containing 0.5 mM dithiothreitol and 1.0 mM EDTA, adjusted to pH 7.4, using a polytron at setting 6 with three passes of 10 sec each. The homogenate is passed through two (2) layers of cheesecloth and the filtrate centrifuged at 1000×g for 10 min. The clear supernatant is removed and recentrifuged at 165,000×g for 30 min. The resulting pellet containing the oxytocin receptors is resuspended in 50.0 mM Tris.HCl containing 5.0 mM MgCl2 at pH 7.4, to give a protein concentration of 2.5 mg/ml of tissue suspension. This preparation is used in subsequent binding assays with [^3 H]Oxytocin.
Binding of 3,5-[^3 H]Oxytocin ([^3 H]OT) to its receptors is done in microtiter plates using [^3 H]OT, at various concentrations, in an assay buffer of 50.0 mM Tris.HCl, pH 7.4 and containing 5.0 mM MgCl2, and a mixture of protease inhibitors: BSA, 0.1 mg; aprotinin, 1.0 mg; 1,10-phenanthroline, 2.0 mg; […], 10.0 mg; and PMSF, 0.3 mg per 100 ml of buffer solution. Nonspecific binding is determined in the presence of 1.0 uM unlabeled OT. The binding reaction is terminated after 60 min., at 22° C., by rapid filtration through glass fiber filters using a Brandel® cell harvester (Biomedical Research and Development Laboratories, Inc., Gaithersburg, Md.). Competition experiments are conducted at equilibrium using 1.0 nM [^3 H]OT and varying the concentration of the displacing agents. The concentrations of agent displacing 50% of [^3 H]OT at its sites (IC50) are calculated by a computer assisted LUNDON-2 program (LUNDON SOFTWARE INC., Ohio, USA).

SMILES | IC50 [1] [µM] | IC50 [2] [µM] | further results
O=C(Nc1ccc(C(=O)N2CCCCc3sccc32)cc1)c1ccc(Cl)c(Cl)c1 [Example 1, N-[4-[(5,6,7,8-Tetrahydro-4H-thieno[3,2-b]azepin-4-yl)carbonyl]phenyl]-3,4-dichlorobenzamide] | 0.44 | 1.65 | 
Cc1ccccc1C(=O)Nc1ccc(C(=O)N2CCCCc3sccc32)cc1 [Example 3, N-[4-[(5,6,7,8-Tetrahydro-4H-thieno[3,2-b]azepin-4-yl)carbonyl]phenyl]-2-methylbenzamide] | 0.023 | 0.077 | Osmolality (Vasopressin V2; 100 mg/kg P.O.): 1081 mOsm/kg; Urine Volume (Vasopressin V2; 100 mg/kg P.O.): 10 ml/4 hours
O=C(Nc1ccc(C(=O)N2CCCCc3sccc32)cc1)c1ccco1 [Example 4, N-[4-[(5,6,7,8-Tetrahydro-4H-thieno[3,2-b]azepin-4-yl)carbonyl]phenyl]2-furanecarboxamide] | 1.8 | 0.4 | 
CC(C)(C)c1ccc(C(=O)Nc2ccc(C(=O)N3CCCCc4sccc43)cc2)cc1 [Example 5, N-[4-[(5,6,7,8-Tetrahydro-4H-thieno[3,2-b]azepin-4-yl)carbonyl]phenyl]4-tert-butylbenzamide] | 21.4 |  | 
CCCCc1ccc(C(=O)Nc2ccc(C(=O)N3CCCCc4sccc43)cc2)cc1 [Example 6, N-[4-[(5,6,7,8-Tetrahydro-4H-thieno[3,2-b]azepin-4-yl)carbonyl]phenyl]4-(n-butyl)benzamide] | 3.4 | 50 | 
Cc1ccsc1C(=O)Nc1ccc(C(=O)N2CCCCc3sccc32)cc1 [Example 7, N-[4-[(5,6,7,8-Tetrahydro-4H-thieno[3,2-b]azepin-4-yl)carbonyl]phenyl]3-methyl-2-thiophenecarboxamide] | 0.138 | 0.059 | Urine Volume (Vasopressin V2; 100 mg/kg P.O.): 6.2 ml/4 hours
Cc1ccc(C)c(C(=O)Nc2ccc(C(=O)N3CCCCc4sccc43)cc2)c1 [Example 8, N-[4-[(5,6,7,8-Tetrahydro-4H-thieno[3,2-b]azepin-4-yl)carbonyl]phenyl]2,5-dimethylbenzamide] | 0.12 | 0.2 | 
Cc1cccc(C(=O)Nc2ccc(C(=O)N3CCCCc4sccc43)cc2)c1C [Example 10, N-[4-[(5,6,7,8-Tetrahydro-4H-thieno[3,2-b]azepin-4-yl)carbonyl]phenyl]2,3-dimethylbenzamide] | 0.052 | 0.23 | 
Cc1ccc(C(=O)Nc2ccc(C(=O)N3CCCCc4sccc43)cc2)c(C)c1 [Example 11, N-[4-[(5,6,7,8-Tetrahydro-4H-thieno[3,2-b]azepin-4-yl)carbonyl]phenyl]2,4-dimethylbenzamide] | 0.06 | 0.28 | Osmolality (Vasopressin V2; 30 mg/kg P.O.): 1420 mOsm/kg; Urine Volume (Vasopressin V2; 30 mg/kg P.O.): 5 ml/4 hours
O=C(Cc1ccccc1)Nc1ccc(C(=O)N2CCCCc3sccc32)cc1 [Example 12, N-[4-[(5,6,7,8-tetrahydro-4H-thieno[3,2-b]azepin-4-yl)carbonyl]phenyl]benzeneacetamide] | 0.036 | 0.26 | 
O=C(Nc1ccc(C(=O)N2CCCCc3sccc32)cc1)c1coc2c1C(=O)CCC2 [Example 179] | 5.5 | 1.3 | 
O=C(Nc1ccc(C(=O)N2CCCCc3sccc32)cc1)c1ccc2[nH]ccc2c1 [Example 180] | 0.37 | 8 | 
CCCCOc1ccc(C(=O)N2CCCCc3sccc32)cc1 [Example 233, 4-[4-(n-Butyloxy)benzoyl]-5,6,7,8-tetrahydro-4H-thieno[3,2-b]azepine] |  |  | IC50 (oxytocin receptors; 1.0 nM [3H]oxytocin): 0.95 µM; inhibition at 10 µM (oxytocin receptors; 10 μM): 93%
